The text below walks through data of publication PMC12444508, “Mechanistic Insights into the Anticancer Action of Novel 2‑Hydroxy-1,4-naphthoquinone Thiol Derivatives” (ACS Omega, 2025).

One may read the pIC50 as the IC50 on a negative log10 scale, so that one unit is a factor of ten.

Data set [1] concerns primary normal human gingival fibroblasts. The data set is described as follows: MTT cell viability assay, primary gingival fibroblasts. It is filed as cell-based. As to conditions: Homo sapiens, Fibroblast; 72 h, MTT; read-out: IC50 primary gingival fibroblast. As for the experimental part:
(§1) Human SCC-4, SCC-9, and SCC-25 cells, derived from a human oral tongue SCC (squamous cell carcinoma), were obtained from ATCC (CRL-1624, CRL-1629, and CRL-1628, respectively) and maintained in 1:1 DMEM/F12 (Dulbecco’s modified Eagle’s medium and Ham’s F12 medium; Gibco (Thermo Fisher, Waltham, MA, USA)) supplemented with 10% (v/v) FBS (fetal bovine serum; Invitrogen, Thermo Fisher, Waltham, MA, USA) and 400 ng/mL hydrocortisone (Sigma-Aldrich Corporation, St. Louis, MO, USA). B16-F10 (melanoma; CRL-6475), HCT-116 (colorectal cancer; CCL-247), and HepG2 (liver cancer; HB-8065), in addition to primary normal human gingival fibroblasts obtained from ATCC (PCS-201-018), were maintained in DMEM supplemented with 10% (v/v) of FBS and were used in a maximum of six passages. Cells were grown in a humidified environment containing 5% CO2 at 37 °C. For all biological assays, compounds and shikonin were solubilized in 100% DMSO (all Sigma-Aldrich Corp.) to a final concentration of 10 mM and lapachol in ethanol. The carboplatin control was prepared in water (Fauldcarbo; Libbs Farmacêutica, São Paulo, SP, Brazil) and was used as a standard anticancer compound.
(§2) The viability of OSCC cell lines and primary human fibroblast cells was assessed using the MTT assay as in ref . Briefly, cells were grown in triplicate in 96-well plates (5 × 10^3 cells/well) until confluence. Then, the medium was removed, fresh medium was added, and the cells were returned to the incubator in the presence of different compounds. DMSO at the same concentration was used as a control for 100% cell viability. After 72 h, cells were incubated with 0.5 mg/mL of MTT reagent (3-(4,5-dimethyl-2-thiazolyl)-2,5-diphenyl-2-H-tetrazolium bromide) (Sigma-Aldrich Corporation, Louis, MO, USA) for 3.5 h. Then, the wells containing the cells were washed with PBS heated to 37 °C, the formazan crystals were dissolved in a solvent solution (DMSO/methanol 1:1 v/v), and the absorbance was read at 560 nm using an EPOCH microplate spectrophotometer (BioTek Instruments, Winooski, VT, USA) with the background absorbance at 670 nm subtracted. Control chemotherapeutics (carboplatin and shikonin) were used.
(§3) Data are presented as means ± SD. IC50 values for the MTT assays were obtained by nonlinear regression using the […] 8.4.3.0 program (Intuitive Software for Science, San Diego, CA, USA) from at least three independent experiments. A dose–response curve (inhibitor) vs response using the least-squares method was used to determine the IC50, SD, and R2 of the data. The selectivity index was calculated as SI = IC50 of the compound in normal oral fibroblast cells/IC50 of the same compound for each oral cancer cell line (SCC-4, SCC-9, and SCC-25) and averaged when indicated.
In general terms: Tetrazolium assays rely on reduction of a dye to a coloured formazan, in cell work by metabolically active cells.

A further data set relates to SCC-25 cells. The data set can be described thus: MTT cell viability assay, SCC-25. The format is cell-based, human. Particulars: for pIC50: Homo sapiens, SCC-25, 72 h, MTT, read-out: IC50 SCC-25; for selective index (SI) SCC-25: vs normal oral fibroblasts. As for the experimental part: as §1, §2, §3
The next data set relates to HepG2 (liver cancer). The data set is described as follows: MTT cytotoxicity/selectivity, HepG2. It is filed as cell-based. As to conditions: vs normal oral fibroblasts. As for the experimental part:
as §1
as §2, with “DMSO at the same concentration was used as a control for 100% cell viability. After 72 h, cells were incubated with 0.5 mg/mL of MTT reagent (3-(4,5-dimethyl-2-thiazolyl)-2,5-diphenyl-2-H-tetrazolium bromide) (Sigma-Aldrich Corporation, Louis, MO, USA) for 3.5 h.” left out, “Control chemotherapeutics (carboplatin and shikonin) were used.” left out
(§4) Data are presented as means ± SD. […] The selectivity index was calculated as SI = IC50 of the compound in normal oral fibroblast cells/IC50 of the same compound for each oral cancer cell line (SCC-4, SCC-9, and SCC-25) and averaged when indicated.

Another data set concerns B16-F10 (melanoma). The data set is described as follows: MTT cytotoxicity/selectivity, B16-F10. It is filed as cell-based. Particulars: vs normal oral fibroblasts. As for the experimental part:
as §1
as §2, with “DMSO at the same concentration was used as a control for 100% cell viability. After 72 h, cells were incubated with 0.5 mg/mL of MTT reagent (3-(4,5-dimethyl-2-thiazolyl)-2,5-diphenyl-2-H-tetrazolium bromide) (Sigma-Aldrich Corporation, Louis, MO, USA) for 3.5 h.” left out, “Control chemotherapeutics (carboplatin and shikonin) were used.” left out
as §4

The next data set is described as follows: Hemolysis assay. The format is cell-based, human. Particulars: human, human erythrocytes, Triton X-100 positive control, read-out: % Hemolysis (Mean ± SD). As for the experimental part: To determine the surfactant power of the substances present in biological membranes, a hemolysis test was carried out with human blood approved by the Research Ethics Committee of the Universidade Federal Fluminense (CAAE: 43134721.4.0000.5626). Erythrocytes were collected for centrifugation at 1500 rpm for 15 min, washed with PBS (phosphate-buffered saline) supplemented with 10 mM glucose, and counted in an automatic cell counter (Thermo Fisher, Waltham, MA, USA). […] In total, 10 μL of PBS was used as a negative control, and 10 μL of PBS with 0.1% Triton x 100 was used as a positive control. Data reading was performed with EPOCH (BioTek Instruments, Winooski, VT, USA) at an absorbance of 540 nm, and statistical data were generated using […] Prism 8.4.3.0 program (Intuitive Software for Science, San Diego, CA, USA).

Data set [2] relates to active caspase 3/7 in SCC-9 cells. The data set can be described thus: Active caspase 3/7 staining. As to conditions: 2 × IC50, 24 h. It is filed as cell-based, human. As for the experimental part:
The following reagents were used in this assay: CellEvent Caspase-3/7 Green Ready Probes Reagent kit (R37111, Thermo Fisher, Waltham, Massachusetts, USA). SCC-9 cells were plated in 24-well microplates in the amount of 5 × 10^4 cells per well as previously described in ref . […] The duration of the treatment time was 24 h. After this period, the cells were taken to the Zeiss Axio Observer A1 fluorescence optical microscope (Zeiss, Oberkochen, Baden-Württemberg, Germany) to obtain caspase labeling images from five different fields. Data quantification was performed using the ImageJ program, and the values of reactive cells for caspase were compared in relation to the total number of cells per field, and the result was given as a percentage.

Another data set has as its system SCC-9 cells. The data set can be described thus: Cell migration (wound healing) assay. The format is cell-based, human. Particulars: 1/8 of IC50, 72 h, SCC-9, mitomycin C. As for the experimental part:
To evaluate the inhibitory capacity of cell migration by substances 7a and 7e, 2 × 10^5 cells of the SCC-9 lineage were plated in a 35 mm Petri dish containing 2.0 mL of supplemented DMEN/F-12 medium and incubated at 37 °C with 5% CO2 until they reached at least ∼100% confluence. After this time, the metabolized medium was removed, and the cells were washed once with PBS and fresh medium (2.0 mL) treated with mitomycin C (MMC), 1-amino-9a-metoxi-7-metil-4,7,9,9a-tetra-hidro-3H-furo[3,4:6,7]-nafto[1,2-d]-imidazole-2(1H)-ona (Sigma-Aldrich Corporation, San Luis, Missouri, USA) at a concentration of 0.5 mg/mL, in a volume of 0.5 μL/mL, and returned to the incubator for 2 h. At the end of the time, scratch wounds were created on the cell monolayer by using a 200 μL capacity tip. […] The plate containing the cells was inserted into a chamber adapted to a Leica DMi1 inverted optical microscope (Leica Microsystems, Wetzlar, Germany) under controlled conditions of CO2 (5%) and temperature (37 °C). Phase contrast images in timelapse footage at 20× magnification for 72 h were captured every 2 min and 24 s. Measurements between the captured margins were collected using ImageJ analysis software (National Institute of Health, USA). […] The percentage of wound closure at each subsequent time is calculated in relation to the initial distance (time: 0 h).

pIC50: −log10 of the molar value. Where only a bound is given, the exact number is not on record here.

`CC1(C)OC2=C(C(=O)c3ccccc3C2=O)C(Sc2ccccc2)C1Sc1ccccc1` (stereo not shown) [7a, 2,2-Dimethyl-3,4-bis(phenylthio)-3,4-dihydro-2H-benzo[g]chromene-5,10-dione]: in data set [1], the pIC50 is 4.24. Further, in the data set with SCC-25 cells, the pIC50 was 4.55 and the “selective index (SI) SCC-25” value worked out at 2.0. The “selective index (SI) HepG2 hepatocellular carcinoma” value with HepG2 (liver cancer) stood at 2.1. Further, in the data set on B16-F10 (melanoma), the “selective index (SI) B16-F10 melanoma” value amounted to 1.4. In addition, the hemolysis at 500 µM in the data set “Hemolysis assay” was under 2%. In addition, the “cells with positive staining for active caspases 3 and 7” value in data set [2] is 71%. Besides, the wound closure in the data set with SCC-9 cells turned out to be 28.4%.

Turning to `COc1ccc(SC2C3=C(OC(C)(C)C2Sc2ccc(OC)cc2)C(=O)c2ccccc2C3=O)cc1` (stereo not shown) [7e, 3,4-Bis((4-methoxyphenyl)thio)-2,2-dimethyl-3,4-dihydro-2H-benzo[g]chromene-5,10-dione], the pIC50 in data set [1] was 3.96; in the data set with SCC-25 cells, 4.89. Further, in the data set on SCC-25 cells, the “selective index (SI) SCC-25” value came out at 8.5. Moreover, the “selective index (SI) HepG2 hepatocellular carcinoma” value in the data set with HepG2 (liver cancer) is 3.4. Further, the “selective index (SI) B16-F10 melanoma” value with B16-F10 (melanoma) was found to be 7.5. The hemolysis at 500 µM in the data set “Hemolysis assay” is under 2%. The “cells with positive staining for active caspases 3 and 7” value in data set [2] amounted to 78.6%. The wound closure with SCC-9 cells worked out at 54.7%.
